Results reported in the supplement of paper PMC10627819.

Columns and labels:
Test in all cases: fitness (endpoint OD595 vs no drug) (fraction); higher = more growth
S. aureus Newman = test system: S. aureus Newman
Outline: (§1)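 Fitness expresses the optical density reached at the stationary-phase transition as a fraction of the robust mean of no-drug control wells. It is capped at 1. Measurements were OD595 every 30 min for 14 h at 37 °C after inoculation of 384-well plates at OD595 0.01 (30 µl, or 55 µl for S. pneumoniae), minus the first reading.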

S. aureus DSM 20231 = test system: S. aureus DSM 20231
Outline: as §1

S. pneumoniae D39V = test system: S. pneumoniae D39V
Outline: as §1
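Further: OD595 on entry to stationary phase over no-drug wells; at most 1.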

COc1cccc2c1C(=O)c1c(O)c3c(c(O)c1C2=O)C[C@@](O)(C(=O)CO)C[C@@H]3O[C@H]1C[C@H](N)[C@H](O)[C@H](C)O1 [Doxorubicin] + CO[C@@]12[C@H](COC(N)=O)C3=C(C(=O)C(C)=C(N)C3=O)N1C[C@@H]1N[C@@H]12 [Mitomycin C]
fitness
Conditions	first compound 0.25 µg/mL	first compound 0.5 µg/mL	first compound 0.625 µg/mL	first compound 1 µg/mL	first compound 1.25 µg/mL	first compound 2.5 µg/mL
S. aureus DSM 20231, partner 0.0156 µg/mL	–	–	0.699	–	0.697	0.668
S. aureus DSM 20231, partner 0.0312 µg/mL	–	–	0.659	–	0.641	0.61
S. aureus DSM 20231, partner 0.0625 µg/mL	–	–	0.52	–	0.496	0.473
S. aureus Newman, partner 0.0156 µg/mL	–	–	0.669	–	0.692	0.672
S. aureus Newman, partner 0.0312 µg/mL	–	–	0.63	–	0.699	0.599
S. aureus Newman, partner 0.0625 µg/mL	–	–	0.531	–	0.507	0.408
S. pneumoniae D39V, partner 0.001075 µg/mL	0.834	0.842	–	0.81	–	–
S. pneumoniae D39V, partner 0.002 µg/mL	0.836	0.822	–	0.696	–	–
S. pneumoniae D39V, partner 0.00215 µg/mL	0.838	0.848	–	0.783	–	–
S. pneumoniae D39V, partner 0.004 µg/mL	0.707	0.664	–	0.632	–	–
S. pneumoniae D39V, partner 0.0043 µg/mL	0.681	0.671	–	0.58	–	–
S. pneumoniae D39V, partner 0.008 µg/mL	0.458	0.435	–	0.404	–	–

CO/N=C(\C(=O)N[C@@H]1C(=O)N2C(C(=O)O)=C(COC(C)=O)CS[C@H]12)c1csc(N)n1 [Cefotaxime] + CO[C@@]12[C@H](COC(N)=O)C3=C(C(=O)C(C)=C(N)C3=O)N1C[C@@H]1N[C@@H]12 [Mitomycin C]
Conditions	fitness
S. aureus DSM 20231, first compound 0.039 µg/mL, partner 0.0156 µg/mL	0.581
S. aureus DSM 20231, first compound 0.039 µg/mL, partner 0.0312 µg/mL	0.532
S. aureus DSM 20231, first compound 0.039 µg/mL, partner 0.0625 µg/mL	0.607
S. aureus DSM 20231, first compound 0.078 µg/mL, partner 0.0156 µg/mL	0.581
S. aureus DSM 20231, first compound 0.078 µg/mL, partner 0.0312 µg/mL	0.577
S. aureus DSM 20231, first compound 0.078 µg/mL, partner 0.0625 µg/mL	0.537
S. aureus DSM 20231, first compound 0.156 µg/mL, partner 0.0156 µg/mL	0.538
S. aureus DSM 20231, first compound 0.156 µg/mL, partner 0.0312 µg/mL	0.562
S. aureus DSM 20231, first compound 0.156 µg/mL, partner 0.0625 µg/mL	0.54
S. aureus DSM 20231, first compound 0.312 µg/mL, partner 0.0156 µg/mL	0.483
S. aureus DSM 20231, first compound 0.312 µg/mL, partner 0.0312 µg/mL	0.495
S. aureus DSM 20231, first compound 0.312 µg/mL, partner 0.0625 µg/mL	0.457
S. aureus Newman, first compound 0.078 µg/mL, partner 0.0156 µg/mL	0.577
S. aureus Newman, first compound 0.078 µg/mL, partner 0.0312 µg/mL	0.574
S. aureus Newman, first compound 0.078 µg/mL, partner 0.0625 µg/mL	0.422
S. aureus Newman, first compound 0.156 µg/mL, partner 0.0156 µg/mL	0.48
S. aureus Newman, first compound 0.156 µg/mL, partner 0.0312 µg/mL	0.414
S. aureus Newman, first compound 0.156 µg/mL, partner 0.0625 µg/mL	0.234
S. aureus Newman, first compound 0.312 µg/mL, partner 0.0156 µg/mL	0.313
S. aureus Newman, first compound 0.312 µg/mL, partner 0.0312 µg/mL	0.22
S. aureus Newman, first compound 0.312 µg/mL, partner 0.0625 µg/mL	0.138
S. pneumoniae D39V, first compound 0.0018 µg/mL, partner 0.001075 µg/mL	0.978
S. pneumoniae D39V, first compound 0.0018 µg/mL, partner 0.002 µg/mL	0.789
S. pneumoniae D39V, first compound 0.0018 µg/mL, partner 0.00215 µg/mL	0.949
S. pneumoniae D39V, first compound 0.0018 µg/mL, partner 0.004 µg/mL	0.81
S. pneumoniae D39V, first compound 0.0018 µg/mL, partner 0.0043 µg/mL	0.863
S. pneumoniae D39V, first compound 0.0018 µg/mL, partner 0.008 µg/mL	0.702
S. pneumoniae D39V, first compound 0.0035 µg/mL, partner 0.001075 µg/mL	0.976
S. pneumoniae D39V, first compound 0.0035 µg/mL, partner 0.002 µg/mL	0.781
S. pneumoniae D39V, first compound 0.0035 µg/mL, partner 0.00215 µg/mL	0.922
S. pneumoniae D39V, first compound 0.0035 µg/mL, partner 0.004 µg/mL	0.767
S. pneumoniae D39V, first compound 0.0035 µg/mL, partner 0.0043 µg/mL	0.838
S. pneumoniae D39V, first compound 0.0035 µg/mL, partner 0.008 µg/mL	0.647
S. pneumoniae D39V, first compound 0.007 µg/mL, partner 0.001075 µg/mL	0.895
S. pneumoniae D39V, first compound 0.007 µg/mL, partner 0.002 µg/mL	0.694
S. pneumoniae D39V, first compound 0.007 µg/mL, partner 0.00215 µg/mL	0.834
S. pneumoniae D39V, first compound 0.007 µg/mL, partner 0.004 µg/mL	0.679
S. pneumoniae D39V, first compound 0.007 µg/mL, partner 0.0043 µg/mL	0.802
S. pneumoniae D39V, first compound 0.007 µg/mL, partner 0.008 µg/mL	0.637

fitness, S. aureus Newman, one replicate
Conditions	first compound 0.625 µg/mL	first compound 1.25 µg/mL	first compound 2.5 µg/mL
partner 0.0156 µg/mL	0.0313	0.0209	0.0581
partner 0.0312 µg/mL	0.025	0.0017	0.0229
partner 0.0625 µg/mL	0.0258	0	0.0272
